Results from US6803195B1, “Facile detection of cancer and cancer risk based on level of coordination between alleles” (Ramot At Tel-Aviv University Ltd., priority 1999, dated 2004).

Key:
Type in all cases: cell-based, human
[1] = system: CAD samples (hematological malignancy patients at diagnosis); test: FISH replication assay, cultures of hematological malignancy patients (CAD) with chromatin modifiers (Example 10); settings: for frequency (%) of SD cells, Mean: CAD + AZA (10^-7M), N = 20
Text: (§1) Cultures were set up from 44 healthy individuals (hereafter called CON) and 20 hematological malignancy patients at diagnosis (hereafter termed CAD). For 20 of the CON samples and all of the CAD samples peripheral in addition to the setting up cultures in the regular growth medium, cultures were set up in medium containing 5-azacytidine (10^−7M; Sigma, USA; hereafter referred to as AZA) a demethylating agent. In addition, cultures from 6 CON and 10 CAD samples were set up in medium containing a deacetylating agents, either Trichostatin A (33 nM; Sigma, USA; hereafter referred to as TSA) or Sodium Butirate (1 nM; Sigma, USA; hereafter referred to as NB), two well described acetylating agents.
(§2) These samples were hybridized with two commercial probes: the AML1 probe (LSI 21, […]) and the α-satellite probe specific for centromere 17 (32-130017, hereafter marked as CEN17). The results are summarized in Table 1 giving the number of samples hybridized with each probe (N), Mean and standard deviation (stdev) as well as the p value obtained using two tailed student's t-test (Microsoft Office 98).

[2] = system: PHA-stimulated lymphocytes, chromosome 21, 13, 17 and 15; test: FISH analysis of chromosome losses and gains with and without 5-azacytidine (Example 6); settings: cancerous samples 1-15, presence vs absence of AZA
Procedure: (§3) Each subject donated five ml of peripheral blood. Cell cultures of PHA-stimulated lymphocytes were set up according to standard protocol (Rooney and Czepulkowsli, 1992). Briefly, 0.5 ml of peripheral blood was introduced into a 15 ml test tube containing 5ml F-10 medium supplemented with 20% fetal calf serum, 0.2% heparin, 1% penicillin/streptomycin antibiotic solution (Biological industries, Israel) and 3% phytohemagglutinin (PHA). In addition, all the 15 samples derived from the hematological patients (samples 1-15) and 15 of the 41 samples derived from non-cancerous subjects (samples 16-30) were also grown in the presence of 10^−7M 5-azacytidine (AZA; Sigman, USA) added to the other ingredients described above.
For the analyses of chromosome losses and gains, at least 200 cells following one-color FISH with each of the chromosome enumerating probes (AML1, RB1, CEN17 and CEN15) were scored for each tested sample, employing the same preparation used for evaluating allelic replication timing. The frequency of cells containing a single signal was used to evaluate the extent of chromosome losses and the frequency of cells with three or more signals were used to assess the level of chromosome gains.
The mean SD value of five loci (TP53, AML1, RB1, CEN17 and CEN15) and the mean losses and gains value of four loci (AML1, RB1, CEN17 and CEN15) represent each sample. […]

[3] = system: PHA-stimulated lymphocytes of patients suffering from a hematological malignancy; test: FISH replication assay, lymphocytes of hematological cancer patients grown with 5-azacytidine (Example 6); settings: for percentage of SD cells following exposure to AZA, mean value: patients' samples 1-15, 72 hours, mean ± standard deviation
Procedure: as §3
After 72 hours at 37° C., colchicine (Sigma, USA) was added to each sample (final concentration of 5×10^−7M for one hour) followed by hypotonic treatment (0.075 M KC1 at 37° C. for 15 minutes) and four washes, each with a fresh cold (−20° C.) 3:1 solution of methanol: acetic acid. The cell suspensions were stored at −20° C. until used for FISH.
Six diverse loci were tested using directly labeled commercial probes obtained from Vysis: (i) the SNRPN probe (32-190004); (ii) the TP53 probe (32-190006); (iii) the AML1 probe (LSI 21; 32-190002); (iv) the RB1 probe (LSI 13; 32-190001); (v) the α-satellite probe specific for centromere 17 (32-130017, hereafter marked as CEN17); and (vi) the satellite III probe specific for centromere 15 (32-1300015, hereafter marked as CEN15). The SNRPN probe identifies the Prader-Willi/Angelman syndrome region on 15q11-13 and is the most well characterized imprinted region in man (Ozoelik et al 1992). The TP53 probe identifies the p53 gene mapped to […] and is a tumor suppressor gene whose deletion and/or inactivation is implicated in over 50% of all human tumors (Prokocimer et al 1998). The AML1 probe recognizes a gene mapped to chromosome 21q22, which is one of the most frequently translocated genes in human blood malignancy (Look 1997). […] It is located on chromosome 13q14, and encodes the retinoblastoma protein. Both centromere specific probes (CEN17 and CEN15) identify non-coding loci implicated with chromosomal segregation and stability and are usually used for the enumeration of chromosome 17 and 15, respectively. Also the AML1 and RB1 probes, although not identifying centromeric regions, were both approved by the FDA to replace centromere specific probes for the enumeration of chromosomes 21 and 13, respectively.
A standard protocol was followed, as recommended by Ingen Laboratories (currently Insitus Biotechnologies), with few minor changes. Probes were diluted in Ingen's DenHyb solutions D001 to 400 folds (CEN17 and CEN15) and in D003 to 100 fold (AML1; RB1) or 50 fold (TP53; SNRPN) instead of the hybridization solution supplied with the probe. Five μl of the probe solution was placed on the targeted area of the sample slides and covered with a 12 mm round silanized coverslip (Ingen laboratories, USA) at 76° C. and denatured for six minutes at that temperature. The slide-filled aluminum slide tray was then transferred into an HybBox (Ingen Laboratories, USA), covered and allowed to hybridize overnight in the box.
All samples obtained from the cancerous patients (samples 1-15) were analyzed with each of the six probes used, each in the absence as well as in the presence of AZA. Out of the non-cancerous samples grown without AZA 41 (samples 16-56) were analyzed with the AML1 and TP53 probes, 30 (samples 16-45) with the CEN17 probe and 15 (samples 16-30) with each of the other three probes (SNRPN, RB1 and CEN15).
Slides were analyzed blindly on an Olympus BH2 fluorescent microscope, using a triple band-pass filter (Chroma technology). For the replication assay (Boogs and Chinault, 1997) at least 100 cells, containing two well-defined hybridization signals were scored from each sample, for each probe and for each treatment, following one-color FISH. […]

[4] = system: CON samples (healthy individuals); test: FISH replication assay, cultures of healthy individuals (CON) with chromatin modifiers (Example 10); settings: for frequency (%) of SD cells, Mean: CON + AZA (10^-7M), N = 20
Text: as §1, §2

[5] = cultured cells with chromatin modifier

SMILES: Nc1ncn([C@@H]2O[C@H](CO)[C@@H](O)[C@H]2O)c(=O)n1 [AZA, 5-azacytidine]
- frequency (%) of SD cells, Mean ([1]; AML1 locus): Mean = 25.3%
- frequency (%) of SD cells, Mean ([1]; CEN17 locus): Mean = 22.7%
- replication pattern in cells derived from cancer patients [1, 5]: attenuate the replication pattern presented in cells derived from cancer patients towards the normal
- losses and gains values (mean of AML1, RB1, CEN17 and CEN15) [2]: unchanged
- percentage of SD cells following exposure to AZA, mean value ([3]; AML1 locus, 10^-7M AZA): 25.3±3.7%
- percentage of SD cells following exposure to AZA, mean value ([3]; CEN15 locus, 10^-7M AZA): 21.9±2.3%
- percentage of SD cells following exposure to AZA, mean value ([3]; CEN17 locus, 10^-7M AZA): 22.7±3.4%
- percentage of SD cells following exposure to AZA, mean value ([3]; RB1 locus, 10^-7M AZA): 22.4±2.5%
- percentage of SD cells following exposure to AZA, range ([3]; TP53, AML1, RB1, CEN17 and CEN15, patients' samples, 10^-7M AZA): 15-28%
- percentage of SD cells following exposure to AZA, mean value ([3]; TP53 locus, 10^-7M AZA): 21.7±4.4%
- cancer-induced allele-specific replication ([3]; all five loci tested (TP53, RB1, AML1, satellited sequences of chromosomes 15 and 17), blood cells of hematological patients): reversed to the normal
- combined SD frequency (mean of TP53, AML1, RB1, CEN17 and CEN15) per sample, range ([3]; patients' samples exposed to AZA): 19.8-26.2%
- frequency (%) of SD cells, Mean ([4]; AML1 locus): Mean = 21.5%
- frequency (%) of SD cells, Mean ([4]; CEN17 locus): Mean = 20.9%
- replication pattern observed in normal genomes [4, 5]: not affecting
